Measurements taken from patent US6534524B1, “Indazole compounds and pharmaceutical compositions for inhibiting protein kinases, and methods for their use” (Agouron Pharmaceuticals, Inc., priority 1999, dated 2003).
Like-named read-outs stand apart in the source and are kept apart here.

Tests used:
[1] = biological target: phosphorylated VEGF-R2Δ50 (FLVK-P) (Homo sapiens, UniProt P35968, DEL940-989/E990V); assay: VEGF-R2 coupled spectrophotometric assay, phosphorylated VEGF-R2Δ50 (FLVK-P)
[2] = biological target: unphosphorylated VEGF-R2Δ50 (FLVK) (Homo sapiens, UniProt P35968, DEL940-989/E990V); assay: VEGF-R2 coupled spectrophotometric assay, unphosphorylated VEGF-R2Δ50 (FLVK); settings: FLVK Ki, Table 1
Sequence of unphosphorylated VEGF-R2Δ50 (FLVK) (P35968 with tags, fused parts or gaps DEL940-989/E990V limits assumed): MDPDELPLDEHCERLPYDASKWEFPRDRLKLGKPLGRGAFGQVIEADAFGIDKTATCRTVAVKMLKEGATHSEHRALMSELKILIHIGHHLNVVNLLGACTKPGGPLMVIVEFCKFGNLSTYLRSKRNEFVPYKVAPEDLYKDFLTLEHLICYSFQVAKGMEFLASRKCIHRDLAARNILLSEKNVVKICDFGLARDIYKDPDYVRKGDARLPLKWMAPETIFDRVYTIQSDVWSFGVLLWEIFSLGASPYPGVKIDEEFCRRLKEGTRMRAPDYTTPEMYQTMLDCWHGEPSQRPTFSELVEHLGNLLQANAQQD

[3] = Determination of inhibitor concentration in mouse plasma after intraperitoneal and oral dosing; assay type: in vivo; settings: for concentration at 7 h: female
In short: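 Plasma levels quantified by HPLC or LC-MS using a standard curve prepared in mouse plasma, following ethyl acetate extraction with internal standard and sodium hydroxide. Sampling at 0.5, 1, 4 h (ocular bleed) and 7 h (cardiac puncture) after oral or intraperitoneal dosing.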

human FGF-R1 = human FGF-R1 (Homo sapiens, UniProt P11362, C488A/C584S/L457V); assay: FGF-R spectrophotometric assay
Sequence of human FGF-R1 (P11362 456-766 L457V/C488A/C584S): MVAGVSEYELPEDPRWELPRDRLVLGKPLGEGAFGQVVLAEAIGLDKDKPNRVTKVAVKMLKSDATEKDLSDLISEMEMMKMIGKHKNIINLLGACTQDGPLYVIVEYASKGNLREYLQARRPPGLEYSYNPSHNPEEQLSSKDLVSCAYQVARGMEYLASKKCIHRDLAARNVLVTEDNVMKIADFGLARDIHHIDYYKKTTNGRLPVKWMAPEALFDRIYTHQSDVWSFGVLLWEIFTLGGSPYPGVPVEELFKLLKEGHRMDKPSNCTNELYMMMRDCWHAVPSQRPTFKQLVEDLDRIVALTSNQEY

[4] = Human liver microsome (HLM) assay; assay type: in vitro ADME; settings: human liver microsomes, 5 μM test compound
In short: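 LC-MS quantified test compound remaining after 0 and 2 h incubation with human liver microsomes. Triplicate samples, clarified by 10 min centrifugation at 14000 g.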

[5] = system: human umbilical vein endothelial cells (HUVEC); assay: HUVEC proliferation assay (VEGF-stimulated, MTT); assay type: cell-based; settings: Homo sapiens, HUVEC, + albumin; read-out: HUVEC + albumin IC50
CDK2/Cyclin A = CDK2/Cyclin A (Homo sapiens, UniProt P24941); assay: CDK2/Cyclin A assay ([32P]ATP, Rb fragment); assay type: biochemical; settings: Table 2
CDK4/Cyclin D3 complex = CDK4/Cyclin D3 complex (Homo sapiens, UniProt P11802); assay: CDK4/Cyclin D assay ([32P]ATP, Rb fragment)
Sequence of CDK4/Cyclin D3 complex (P11802 whole entry, the tested form may be a part): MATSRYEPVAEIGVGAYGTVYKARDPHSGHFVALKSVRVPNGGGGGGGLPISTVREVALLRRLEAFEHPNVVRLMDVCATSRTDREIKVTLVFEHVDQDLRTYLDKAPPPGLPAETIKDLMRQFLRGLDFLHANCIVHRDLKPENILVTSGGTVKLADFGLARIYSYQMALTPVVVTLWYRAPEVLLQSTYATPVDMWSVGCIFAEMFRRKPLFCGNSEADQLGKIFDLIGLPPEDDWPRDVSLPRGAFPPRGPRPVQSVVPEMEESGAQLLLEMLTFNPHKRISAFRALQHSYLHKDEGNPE
Sequence of CDK4/Cyclin D3 complex (P30281 whole entry partner, the tested form may be a part): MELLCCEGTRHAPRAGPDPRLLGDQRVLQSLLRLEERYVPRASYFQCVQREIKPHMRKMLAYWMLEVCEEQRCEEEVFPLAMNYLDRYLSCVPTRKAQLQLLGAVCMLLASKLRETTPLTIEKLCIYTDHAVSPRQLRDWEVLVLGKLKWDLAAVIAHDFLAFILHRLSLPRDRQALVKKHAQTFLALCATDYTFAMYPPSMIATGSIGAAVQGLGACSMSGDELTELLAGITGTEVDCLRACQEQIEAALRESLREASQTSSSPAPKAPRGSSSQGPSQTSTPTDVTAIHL

[6] = PO, 50 mg/kg, vehicle PEG400:H2O pH 2.3 60:40
[7] = IP, 25 mg/kg, vehicle PEG400:H2O pH 2.3 30:70
[8] = PO, 50 mg/kg, vehicle PEG400:H2O pH 2.3 30:70
[9] = IP, 25 mg/kg, vehicle PEG400:H2O pH 2.3 30:70, read-out: Cmin (7 hr conc.)
[10] = IP, 25 mg/kg, vehicle PEG400:H2O pH 2.3 60:40
[11] = PO, 25 mg/kg, vehicle PEG400:H2O pH 2.3 30:70
[12] = PO, 25 mg/kg, vehicle PEG400:H2O pH 2.3 30:70, read-out: Cmin (7 hr conc.)

Sequence of phosphorylated VEGF-R2Δ50 (FLVK-P) (P35968 with tags, fused parts or gaps DEL940-989/E990V limits assumed): as the sequence (P35968 with tags, fused parts or gaps DEL940-989/E990V limits assumed) above

## Cc1cncc(C(=O)Nc2cccc(C(=O)c3ccc4c(/C=C/c5ccccc5)n[nH]c4c3)c2)c1 [Example 19(e), 6-[3-(5-Methylpyridin-3-ylcarboxamido)benzoyl]-3-E-styryl-1H-indazole]
[1]
  Ki: 20 nM

## O=C(Nc1cccc(C(=O)c2ccc3c(/C=C/c4ccccc4)n[nH]c3c2)c1)c1ccccc1 [Example 19(b), N-[3-(3-Styryl-1H-indazole-6-carbonyl)-phenyl]-benzamide]
[2]
  Ki: 0.49 nM
[1]
  Ki: 6.6 nM
[3]; [6]
  plasma half-life (T1/2): ∞

## CC(C)C(=O)Nc1cccc(C(=O)c2ccc3c(/C=C/c4ccccc4)n[nH]c3c2)c1 [Example 19(h), 6-[3-(2-Methylpropionamido)benzoyl]-3-E-styryl-1H-indazole]
[1]
  Ki: 5.9 nM

## CN(c1cccc(NC(=O)c2ccc(O)c(C(C)(C)C)c2)c1)c1ccc2c(/C=C/c3ccc4c(c3)OCO4)n[nH]c2c1 [Example 16(f)]
[1]
  Ki: 2.8 nM

## CCn1nc(C)cc1C(=O)Nc1cccc(C(=O)c2ccc3c(/C=C/c4ccccn4)n[nH]c3c2)c1 [Example 41(a), 6-[3-((1-Ethyl-3-methyl-1H-pyrazol-5-yl)carboxamido)benzoyl]-3-E-[2-(pyridin-2-yl)ethenyl]-1H-indazole]
Human FGF-R1
  Ki: 20 nM
[4]
  % remain (HLM, 2 h): 96%
[2]
  Ki: 0.03 nM
[3]; [7]
  AUClast: 92823 ng·h/mL
  Cmax: 32202 ng/mL
  plasma half-life (T1/2): 2.9 h
[3]; [8]
  AUClast: 48998 ng·h/mL
  Cmax: 18433 ng/mL
  plasma half-life (T1/2): 3.4 h
[3]; [9]
  concentration at 7 h: 3860 ng/mL
[3]; PO, 50 mg/kg, vehicle PEG400:H2O pH 2.3 30:70, read-out: Cmin (7 hr conc.)
  concentration at 7 h: 2460 ng/mL

## O=C(Nc1cccc(Cl)c1)c1ccccc1Sc1ccc2c(/C=C/c3ccccn3)n[nH]c2c1 [Example 33(d), 6-[2-(3-Chlorophenylcarbamoyl)phenylsulfanyl]-3-E-[2-(pyridin-2-yl)ethenyl]-1H-indazole]
Human FGF-R1
  Ki: 24 nM
[4]
  % remain (HLM, 2 h): 22%
[2]
  Ki: 0.14 nM
[3]; [10]
  AUClast: 5080 ng·h/mL
  plasma half-life (T1/2): 1.6 h
[3]; [6]
  AUClast: 4744 ng·h/mL
  plasma half-life (T1/2): 0.9 h
[3]; IP, 25 mg/kg, vehicle PEG400:H2O pH 2.3 60:40, read-out: Cmin (7 hr conc.)
  concentration at 7 h: 113 ng/mL
[3]; PO, 50 mg/kg, vehicle PEG400:H2O pH 2.3 60:40, read-out: Cmin (7 hr conc.)
  concentration at 7 h: 8 ng/mL

## O=C(Nc1cccc(Sc2ccc3c(/C=C/c4ccccc4)n[nH]c3c2)c1)c1ccccc1 [Example 20(b), 6(3-(Benzoylamido)-phenylsulfanyl)-3-styryl-1H-indazole]
[2]
  Ki: 1.6 nM
[1]
  Ki: 8 nM

## O=CNc1ccccc1/C=C/c1n[nH]c2cc(C(=O)c3cccc(NC(=O)c4ccccc4)c3)ccc12 [Example 43, 6-(3-Benzamidobenzoyl)-3-E-[2-(2-formamidophenyl)ethenyl]-1H-indazole]
[1]; read-out: FLVK-P % inhibition
  inhibition at 0.05 µM: 56%
[5]
  IC50: 24 nM

## CC(=O)Nc1cccc(C(=O)c2ccc3c(/C=C/c4ccccc4)n[nH]c3c2)c1 [Example 19(a), N-[3-(3-Styryl-1H-indazole-6-carbonyl)-phenyl]-acetamide]
[2]
  Ki: 13.8 nM
[1]
  Ki: 6.8 nM

## Cc1cccc(C(=O)Nc2cccc(Oc3ccc4c(-c5cc6ccccc6[nH]5)n[nH]c4c3)c2)c1 [Example 6(b)]
[1]
  Ki: 0.15 nM

## C=C(c1cccc(NC(=O)c2ccccc2)c1)c1ccc2c(/C=C/c3ccccc3)n[nH]c2c1 [Example 22(b), 6-(1-(3-(Benzoylamido)phenyl)-vinyl)-3-styryl-1H-indazole]
[2]
  Ki: 0.63 nM
[1]
  Ki: 1.2 nM

## O=C(Nc1cccc(C(=O)c2ccc3c(/C=C/c4ccccc4)n[nH]c3c2)c1)OCc1ccccc1 [Example 19(c)]
[1]
  Ki: 5.9 nM

## CN(C)c1cccc(C(=O)Nc2cccc(N(C)c3ccc4c(/C=C/c5ccc6c(c5)OCO6)n[nH]c4c3)c2)c1 [Example 16(c), N-(3-{[3-(2-Benzo[1,3]dioxol-5-yl-vinyl)-1H-indazol-6-yl]-methyl-amino}-phenyl)-3-dimethylamino-benzamide]
[1]
  Ki: 1.1 nM

## CC(=O)N1CCC(C(=O)Nc2cccc(Oc3ccc4c(/C=C/c5ccc(Cl)cc5)n[nH]c4c3)c2)CC1 [Example 30(b), 6-[3-(1-Acetylpiperidin-4-ylcarboxamido)phenoxy]-3-E-[2-(4-chlorophenyl)ethenyl]-1H-indazole]
[1]
  Ki: 2.2 nM

## O=C(NNc1ccccn1)c1ccccc1Sc1ccc2c(/C=C/c3ccccn3)n[nH]c2c1 [Example 35(n)]
Human FGF-R1
  Ki: 92 nM
[4]
  % remain (HLM, 2 h): 47%
[2]
  Ki: 0.83 nM
[3]; [11]
  AUClast: 4818 ng·h/mL
  Cmax: 3545 ng/mL
  plasma half-life (T1/2): 1.4 h
[3]; [12]
  concentration at 7 h: 55 ng/mL

## C=C(c1cccc(NC(=O)c2ncc(C)s2)c1)c1ccc2c(/C=C/c3ccccc3)n[nH]c2c1 [Example 22(a), 6-(1-(3-(5-Methyl-thiaxole-2-carboxoylamido)phenyl)-vinyl)-3-styryl-1H-indazole]
[2]
  Ki: 0.22 nM
[1]
  Ki: 0.2 nM

## Nc1cccc(C(=O)c2ccc3c(/C=C/c4ccccn4)n[nH]c3c2)c1 [Example 40(a), 6(3-Amino-benzoyl)-3-E-[2-(pyridin-2-yl)ethenyl]-1H-indazole]
[1]
  Ki: 17.9 nM

## C=C(c1cccc(NC(C)=O)c1)c1ccc2c(/C=C/c3ccccc3)n[nH]c2c1 [Example 23, 6-(1-(3-Acetamido-phenyl)-vinyl)-3-styryl-1H-indazole]
[4]
  % remain (HLM, 2 h): 74%
[2]
  Ki: 1.6 nM
[1]
  Ki: 2.1 nM

## CSc1cc(O)ccc1-c1ccc2c(-c3nc4ccccc4[nH]3)n[nH]c2c1 [Example 24(k), 3-1H-Benzoimidazol-2-yl-6-(2-methylsulfanyl-4-hydroxyphenyl)-1H-indazole]
Human FGF-R1
  Ki: 160 nM
CDK2/Cyclin A
  Ki: 56 nM
CDK4/Cyclin D3 complex
  Ki: 7.2 nM

## Nc1cccc(Nc2ccc3c(/C=C/c4ccccc4)n[nH]c3c2)c1 [Example 46]
[1]
  Ki: 3.5 nM

## CN(c1cccc(N)c1)c1ccc2c(/C=C/c3ccc4c(c3)OCO4)n[nH]c2c1 [Example 15, N-[3-(2-Benzo[1,3]dioxol-5-yl-vinyl)-1H-indazol-6-yl]-N-methyl-benzene-1,3-diamine]
[1]
  Ki: 15 nM

## Cc1cc(C(=O)Nc2cccc(C(=O)c3ccc4c(/C=C/c5ccccn5)n[nH]c4c3)c2)n(C)n1 [Example 41(p), 6-[3-((1,3-Dimethyl-1H-pyrazol-5-yl)carboxamido)benzoyl]-3-E-[2-(pyridin-2-yl)ethenyl]-1H-indazole]
Human FGF-R1
  Ki: 90 nM
[4]
  % remain (HLM, 2 h): 62%
[2]
  Ki: 0.06 nM
[3]; [7]
  AUClast: 4150 ng·h/mL
  plasma half-life (T1/2): 5.5 h
[3]; [9]
  concentration at 7 h: 380 ng/mL

## CONC(=O)c1ccccc1Sc1ccc2c(/C=C/c3ccccn3)n[nH]c2c1 [Example 35(r), 6-[2-(Methoxycarbamoyl)phenylsulfanyl]-3-E-[2-(pyridin-2-yl)ethenyl]-1H-indazole]
Human FGF-R1
  Ki: 20 nM
[4]
  % remain (HLM, 2 h): 51%
[2]
  Ki: 0.11 nM
[3]; [11]
  AUClast: 4261 ng·h/mL
  plasma half-life (T1/2): 1.3 h
[3]; [12]
  concentration at 7 h: 67 ng/mL
